Test results: patent US8658638B2, “Mineralocorticoid receptor antagonist and methods of use” (priority 2009, dated 2014)

Experiments:
[1] = target: T1, human MR (mineralocorticoid receptor) (Homo sapiens, UniProt P08235); test: Steroid nuclear hormone receptor binding assay, MR; details: [3H]-aldosterone, HEK293 lysate overexpressing human MR
T1 construct: expressed in transfected cells; host or cells: HEK293 (293-MR lysate)
T1 sequence (P08235 1-984): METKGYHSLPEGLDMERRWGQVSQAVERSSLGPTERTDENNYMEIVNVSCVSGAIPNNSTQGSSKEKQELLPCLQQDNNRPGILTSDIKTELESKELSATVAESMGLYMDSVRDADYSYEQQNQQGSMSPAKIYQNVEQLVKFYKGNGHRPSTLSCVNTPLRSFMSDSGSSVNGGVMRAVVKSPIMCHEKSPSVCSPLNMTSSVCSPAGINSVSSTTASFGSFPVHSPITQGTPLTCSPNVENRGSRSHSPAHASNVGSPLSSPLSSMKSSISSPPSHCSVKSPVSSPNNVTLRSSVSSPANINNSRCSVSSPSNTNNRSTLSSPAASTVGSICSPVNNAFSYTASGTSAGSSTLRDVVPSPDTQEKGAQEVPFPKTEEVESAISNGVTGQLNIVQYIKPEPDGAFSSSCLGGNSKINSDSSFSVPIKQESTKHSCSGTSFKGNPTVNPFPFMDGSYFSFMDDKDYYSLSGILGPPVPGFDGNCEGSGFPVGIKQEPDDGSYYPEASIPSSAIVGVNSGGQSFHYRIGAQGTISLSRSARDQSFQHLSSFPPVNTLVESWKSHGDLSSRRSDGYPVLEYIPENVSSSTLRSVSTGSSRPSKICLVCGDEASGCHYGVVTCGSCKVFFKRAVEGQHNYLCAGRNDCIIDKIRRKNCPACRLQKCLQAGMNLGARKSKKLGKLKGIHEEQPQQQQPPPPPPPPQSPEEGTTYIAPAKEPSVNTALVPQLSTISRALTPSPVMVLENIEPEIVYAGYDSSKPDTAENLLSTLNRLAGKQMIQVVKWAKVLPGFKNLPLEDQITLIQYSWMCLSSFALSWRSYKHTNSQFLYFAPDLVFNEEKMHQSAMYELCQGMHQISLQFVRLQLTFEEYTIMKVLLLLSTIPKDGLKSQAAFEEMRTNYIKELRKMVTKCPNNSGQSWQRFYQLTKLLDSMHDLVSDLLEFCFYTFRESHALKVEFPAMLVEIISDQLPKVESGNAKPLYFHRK
Method: Cell lysates from human embryonic kidney HEK293 cells overexpressing human MR (mineralocorticoid receptor), GR (glucocorticoid receptor), AR (androgen receptor), or PR (progesterone receptor) are used for receptor-ligand competition binding assays to determine Ki values.
Briefly, steroid receptor competition binding assays are run in a buffer containing 20 mM HEPES buffer (pH=7.6), 0.2 mM EDTA, 75 mM NaCl, 1.5 mM MgCl2, 20% glycerol, 20 mM sodium molybdate, 0.2 mM DTT (dithiothreitol), 20 μg/mL aprotinin and 20 μg/mL leupeptin (assay buffer). Typically, steroid receptor binding assays include radio-labeled ligands, such as 0.25 nM [^3H]-aldosterone for MR binding, 0.7 nM [^3H]-dexamethasone for GR binding, 0.36 nM [^3H]-methyltrienolone for AR binding, and 0.29 nM [^3H]-methyltrienolone for PR binding, and either 20 μg 293-MR lysate, 20 μg 293-GR lysate, 22 μg 293-AR lysate, or 40 μg 293-PR lysate per well. Assays are typically run in 96-well format. Competing test compounds are added at various concentrations ranging from about 0.01 nM to 10 μM. Non-specific binding is determined in the presence of 500 nM aldosterone for MR binding, 500 nM dexamethasone for GR binding, or 500 nM methyltrienolone for AR and PR binding. […] After an incubation of 2 hours, plates are read in a Wallac Microbeta counter. […]

[2] = target: T2, human mineralocorticoid receptor (MR) (Homo sapiens, UniProt P08235); test: Nuclear hormone receptor panel screen (luciferase reporter, HEK293), MR; assay type: cell-based
T2 construct: expressed in transfected cells; host or cells: HEK293
T2 sequence (P08235 1-984): T1 sequence (P08235 1-984)
From the text: Aldosterone exerts it physiological effects through interaction with the mineralocorticoid receptor. Following cytoplasmic binding of aldosterone to MR, the ligand receptor complex translocates to the cell nucleus where it binds to hormone response elements on DNA to initiate expression of target genes. […] The solvents, reagents, and ligands employed in the functional assay are readily available from commercial sources, or can be prepared by one of ordinary skill in the art.
Human embryonic kidney HEK293 cells are transfected with steroid hormone receptor and reporter gene plasmids using a suitable transfection reagent such as Fugene™. […] After 24 hours incubation with test compounds, cells are lysed and luciferase activity is determined using standard techniques.
Data are fitted to a four parameter-fit logistic curve to determine EC50 values. […] IC50 values are determined similarly using antagonist mode assay data. In the antagonist mode, percent inhibitions are determined by comparing test compound activity in the presence of low concentration of agonist (0.08 nM aldosterone for MR, 0.25 nM dexamethasone for GR, 0.66 nM of methyltrienolone for AR, and 0.08 nM of promegestone for PR) to the response produced by the same low concentration of agonist in the absence of test compound.

- Ki [1]: ~0.4 nM
- EC50 ([2]; agonist mode): > 10000 nM
- IC50 ([2]; antagonist mode, 0.08 nM aldosterone): ~21 nM
SMILES: O=c1[nH]c2cc(/C=C3\c4ccccc4COc4cc(F)ccc43)ccc2n1[C@@H]1C[C@@H]2COCCN2C1 [Compound (I), 5-((E)-(3-fluorodibenzo[b,e]oxepin-11(6H)-ylidene)methyl)-1-((7R,8aR)-hexahydro-1H-pyrrolo[2,1-c][1,4]oxazin-7-yl)-1H-benzo[d]imidazol-2(3H)-one]
